Measurements taken from ChEMBL document CHEMBL5096208, “Installation of Pargyline, a LSD1 Inhibitor, in the HDAC Inhibitory Template Culminated in the Identification of a Tractable Antiprostate Cancer Agent” (J Med Chem, 2021).
Active and inactive are the calls of the source. No cut-off for these calls is given here.

Key:
[1] = Metabolic stability in Sprague-Dawley rat hepatocyte assessed as intrinsic clearance at 10 uM by LC-MS/MS analysis; format: ADME, cell-based; details: hepatocytes, read-out: CLH
[2] = Metabolic stability in Beagle dog hepatocyte assessed as parent compound remaining at 10 uM incubated for 60 mins by LC-MS/MS analysis; format: ADME, cell-based, Canis lupus familiaris; details: hepatocytes, read-out: Stability
[3] = Metabolic stability in Sprague-Dawley rat hepatocyte assessed as parent compound remaining at 10 uM by LC-MS/MS analysis; format: ADME, cell-based; details: hepatocytes, read-out: Stability
[4] = Cmax in Sprague-Dawley rat at 25 mg/kg, po formulated using SMEDDS administered once via gavage measured upto 24 hrs post dose by UPLC-MS/MS analysis; format: ADME, organism-based; set-up: dose 25 mg/kg, time < 24 hrs, route po; details: in vivo
[5] = species on record: Homo sapiens; test: Selectivity ratio of IC50 for human HDAC1 to IC50 for human HDAC6
[6] = Metabolic stability in human hepatocyte assessed as parent compound remaining at 10 uM incubated for 60 mins by LC-MS/MS analysis; format: ADME, cell-based; details: hepatocytes, read-out: Stability
[7] = system: PC-3; test: Antiproliferative activity against human PC-3 cells assessed as cell growth inhibition incubated for 48 hrs by MTT assay; format: functional
[8] = Metabolic stability in Sprague-Dawley rat hepatocyte assessed as half life at 10 uM by LC-MS/MS analysis; format: ADME, cell-based; details: hepatocytes
[9] = Metabolic stability in Beagle dog hepatocyte assessed as half life at 10 uM by LC-MS/MS analysis; format: ADME, cell-based, Canis lupus familiaris; details: hepatocytes
[10] = system: DU-145; test: Upregulation of acetyl-histone H3 in human DU-145 cells at 0.625 to 5 uM by Western blot analysis; format: functional, cell-based; details: dose 0.625-5 µM
[11] = Metabolic stability in Sprague-Dawley rat hepatocyte assessed as parent compound remaining at 10 uM incubated for 120 mins by LC-MS/MS analysis; format: ADME, cell-based; details: hepatocytes, read-out: Stability
[12] = system: DU-145; test: Antitumor activity against human DU-145 cells xenografted in athymic nude mouse assessed as tumor growth inhibition at 50 mg/kg, po qd measured upto 60 days by caliper method relative to control; format: functional; details: DU-145, 1440 h, time <= 60 day, read-out: TGI
[13] = Metabolic stability in Sprague-Dawley rat hepatocyte assessed as parent compound remaining at 10 uM incubated for 240 mins by LC-MS/MS analysis; format: ADME, cell-based; details: hepatocytes, read-out: Stability
[14] = target: Lysine-specific histone demethylase 1A (Homo sapiens) (UniProt O60341); test: Inhibition of LSD1 (unknown origin) using […] as substrate at 1 uM incubated for 48 hrs followed by substrate addition and measured after 2 hrs by microplate reader analysis; details: time 50.0 hrs
[15] = target: T1, Polyamine deacetylase HDAC10 (Homo sapiens, UniProt Q969S8); test: Inhibition of human HDAC10 using Ac-Spermidine-AMC as flurogenic substrate
T1 sequence (Q969S8 whole entry): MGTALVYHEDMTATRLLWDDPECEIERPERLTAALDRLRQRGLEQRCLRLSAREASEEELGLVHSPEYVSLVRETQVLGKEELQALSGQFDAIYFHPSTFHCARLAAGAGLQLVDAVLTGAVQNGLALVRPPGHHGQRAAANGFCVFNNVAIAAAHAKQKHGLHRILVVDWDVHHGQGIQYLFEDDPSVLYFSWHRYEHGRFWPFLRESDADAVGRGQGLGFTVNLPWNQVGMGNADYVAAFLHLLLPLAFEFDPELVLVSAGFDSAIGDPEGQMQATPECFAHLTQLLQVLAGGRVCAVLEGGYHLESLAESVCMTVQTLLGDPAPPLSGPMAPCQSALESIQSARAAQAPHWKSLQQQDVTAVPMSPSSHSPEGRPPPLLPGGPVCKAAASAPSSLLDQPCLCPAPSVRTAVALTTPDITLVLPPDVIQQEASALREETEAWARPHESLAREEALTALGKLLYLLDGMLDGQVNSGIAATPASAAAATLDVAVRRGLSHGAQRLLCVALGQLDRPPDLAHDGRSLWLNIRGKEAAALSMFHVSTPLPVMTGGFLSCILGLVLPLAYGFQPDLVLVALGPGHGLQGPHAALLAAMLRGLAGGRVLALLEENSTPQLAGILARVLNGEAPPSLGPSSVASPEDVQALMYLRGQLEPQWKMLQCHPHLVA

[16] = AUC (0 to infinity) in Sprague-Dawley rat at 25 mg/kg, po administered once via gavage measured upto 24 hrs post dose by UPLC-MS/MS analysis; format: ADME, organism-based; set-up: time < 24 hrs, dose 25 mg/kg, route po; details: in vivo
[17] = Metabolic stability in Sprague-Dawley rat hepatocyte assessed as parent compound remaining at 10 uM incubated for 30 mins by LC-MS/MS analysis; format: ADME, cell-based; details: hepatocytes, read-out: Stability
[18] = species on record: Homo sapiens; test: Selectivity ratio of IC50 for human HDAC7 to IC50 for human HDAC6

CLint scaled at 10 µM [1]: 90.2 mL/min/kg | remaining at 1 h, 10 µM [2]: 81.2% | remaining at 10 µM [3]: 100% | Cmax [4]: 257 ng/mL | Ratio IC50 [5]: 33.6 | remaining at 1 h, 10 µM [6]: 102% | GI50 [7]: 330 nM | half-life at 10 µM [8]: 1.56 h | half-life at 10 µM [9]: 3.61 h | remaining at 2 h, 10 µM [11]: 35.9% | remaining at 4 h, 10 µM [13]: 15.9% | inhibition [14]: Active | IC50 [15]: 374 nM | AUC(0-inf) [16]: 113 ng·h/mL | remaining at 0.5 h, 10 µM [17]: 72.2% | Ratio IC50 [18]: > 500
Structure (SMILES): C#CCN(C)Cc1cccc(NC(=O)CCCCCCC(=O)NO)c1
Activity [10]: Active | inhibition in vivo at 50 mg/kg [12]: 65.8%
